Experimental data reported in article PMC5489766 (Journal of Ginseng Research, 2016).

Columns and labels:
HSA [1] = molecular target: T1, HSA (Homo sapiens, UniProt P02768); assay: Fluorescence quenching of HSA by G-Rh2; assay type: binding; settings: for KSV: HSA 1 μM, pH 7.4; for Kd: K (binding constant)
BSA [2] = molecular target: T2, BSA (Bos taurus, UniProt P02769); assay: UV-Vis absorption spectra of BSA with G-Rh2; assay type: binding, bovine; settings: BSA 25 μM, G-Rh2 50 μM, 298K, pH7.4
HSA [3] = molecular target: T1, HSA; assay: UV-Vis absorption spectra of HSA with G-Rh2; assay type: binding; settings: HSA 25 μM, G-Rh2 50 μM, 298K, pH7.4
[4] = tested on: PARP cleavage in HepG2 cells; assay: Immunoblotting of PARP cleavage; assay type: cell-based; settings: HepG2, 7.5 μg/mL, BSA or bovine serum, 4 h
HepG2 cells = assay: MTT assay, cytotoxic activity with or without serum albumin; assay type: cell-based; settings: HepG2, 7.5 μg/mL, 48 h
BSA [5] = molecular target: T2, BSA; assay: Fluorescence quenching of BSA by G-Rh2; assay type: binding, bovine; settings: for KSV: BSA 1 μM, pH 7.4; for Kd: K (binding constant)
[6] = general statement; cited from earlier work

T2 sequence (P02769 25-607): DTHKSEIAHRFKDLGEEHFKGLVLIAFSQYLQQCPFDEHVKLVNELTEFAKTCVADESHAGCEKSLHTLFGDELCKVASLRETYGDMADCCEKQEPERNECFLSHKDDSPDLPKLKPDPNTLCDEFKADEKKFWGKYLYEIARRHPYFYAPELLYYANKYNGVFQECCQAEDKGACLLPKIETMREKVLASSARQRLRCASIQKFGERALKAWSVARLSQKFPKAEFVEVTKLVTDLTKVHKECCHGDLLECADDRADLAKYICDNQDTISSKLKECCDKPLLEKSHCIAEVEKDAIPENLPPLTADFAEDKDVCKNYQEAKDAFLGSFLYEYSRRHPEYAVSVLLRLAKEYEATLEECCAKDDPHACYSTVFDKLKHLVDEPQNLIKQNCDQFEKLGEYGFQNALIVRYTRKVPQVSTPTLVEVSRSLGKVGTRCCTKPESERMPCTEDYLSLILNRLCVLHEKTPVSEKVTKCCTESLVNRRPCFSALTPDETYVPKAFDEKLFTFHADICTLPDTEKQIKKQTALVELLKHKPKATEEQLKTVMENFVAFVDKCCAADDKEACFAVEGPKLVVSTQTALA
T1 sequence (P02768 25-609): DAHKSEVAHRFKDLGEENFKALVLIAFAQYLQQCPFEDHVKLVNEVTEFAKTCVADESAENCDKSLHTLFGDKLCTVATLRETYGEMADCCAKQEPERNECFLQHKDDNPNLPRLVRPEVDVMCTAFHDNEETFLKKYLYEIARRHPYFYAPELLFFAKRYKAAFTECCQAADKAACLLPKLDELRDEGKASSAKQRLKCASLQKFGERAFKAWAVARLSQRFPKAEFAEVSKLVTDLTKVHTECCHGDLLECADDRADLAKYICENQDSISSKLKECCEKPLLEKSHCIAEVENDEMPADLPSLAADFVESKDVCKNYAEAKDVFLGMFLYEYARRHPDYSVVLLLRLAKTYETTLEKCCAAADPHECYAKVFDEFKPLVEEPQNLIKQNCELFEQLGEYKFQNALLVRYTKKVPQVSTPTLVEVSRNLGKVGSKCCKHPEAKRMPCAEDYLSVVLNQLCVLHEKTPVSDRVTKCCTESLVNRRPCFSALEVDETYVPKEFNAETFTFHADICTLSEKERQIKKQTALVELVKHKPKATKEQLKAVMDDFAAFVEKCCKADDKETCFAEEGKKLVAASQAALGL

CC(C)=CCC[C@](C)(O)[C@H]1CC[C@]2(C)[C@@H]1[C@H](O)C[C@@H]1[C@@]3(C)CC[C@H](O[C@@H]4O[C@H](CO)[C@@H](O)[C@H](O)[C@H]4O)C(C)(C)[C@@H]3CC[C@]12C [(20R) G-Rh2, Ginsenoside Rh2]
KSV (HSA [1]; 298 K): 4.5120 10^4 M^−1
KSV (HSA [1]; 303 K): 6.9016 10^4 M^−1
KSV (HSA [1]; 308 K): 7.2751 10^4 M^−1
kq (HSA [1]; HSA, 298 K): 4.5120 10^12 M^−1 s^−1
n (number of binding sites) (HSA [1]; HSA, 298 K): 1.131
kq (HSA [1]; HSA, 303 K): 6.9016 10^12 M^−1 s^−1
n (number of binding sites) (HSA [1]; HSA, 303 K): 1.0626
kq (HSA [1]; HSA, 308 K): 7.2751 10^12 M^−1 s^−1
n (number of binding sites) (HSA [1]; HSA, 308 K): 1.0284
Kd (HSA [1]; HSA, 298 K): 4.85 µM
Kd (HSA [1]; HSA, 303 K): 6.89 µM
Kd (HSA [1]; HSA, 308 K): 11.5 µM

CC(C)=CCC[C@](C)(O)[C@H]1CC[C@]2(C)[C@@H]1[C@H](O)C[C@@H]1[C@@]3(C)CC[C@H](O[C@@H]4O[C@H](CO)[C@@H](O)[C@H](O)[C@H]4O)C(C)(C)[C@@H]3CC[C@]12C [G-Rh2, Ginsenoside Rh2]
UV-Vis absorption of protein on adding G-Rh2 (BSA [2]): significantly increased with a slight blue shift of the maximum absorption wavelength
UV-Vis absorption of protein on adding G-Rh2 (HSA [3]): significantly increased with a slight blue shift of the maximum absorption wavelength

CC(C)=CCC[C@](C)(O)[C@H]1CC[C@]2(C)[C@@H]1[C@H](O)C[C@@H]1[C@@]3(C)CC[C@H](O[C@@H]4O[C@H](CO)[C@@H](O)[C@H](O)[C@H]4O)C(C)(C)[C@@H]3CC[C@]12C [(20S) G-Rh2, Ginsenoside Rh2]
PARP cleavage ([4]; with 1.68mg/mL albumin by adding HSA): totally inhibited PARP cleavage
PARP cleavage ([4]; without HSA): caused the cleavage of poly-adenosine diphosphate-ribose polymerase (PARP)
Cell viability (HepG2 cells; increased concentration of albumin by adding HSA, BSA or bovine serum): significantly increased in an albumin-dose-dependent manner
Cell viability (HepG2 cells; without SA): killed almost all cells
KSV (BSA [5]; 298 K): 7.3470 10^4 M^−1
KSV (BSA [5]; 303 K): 11.6703 10^4 M^−1
KSV (BSA [5]; 308 K): 9.2848 10^4 M^−1
kq (BSA [5]; BSA, 298 K): 7.3470 10^12 M^−1 s^−1
n (number of binding sites) (BSA [5]; BSA, 298 K): 1.1329
kq (BSA [5]; BSA, 303 K): 11.6703 10^12 M^−1 s^−1
n (number of binding sites) (BSA [5]; BSA, 303 K): 1.0192
kq (BSA [5]; BSA, 308 K): 9.2848 10^12 M^−1 s^−1
n (number of binding sites) (BSA [5]; BSA, 308 K): 0.9702
number of binding site (BSA [5]; BSA, temperature not stated (abstract)): 1
Kd (BSA [5]; BSA, 298 K): 2.77 µM
Kd (BSA [5]; BSA, 303 K): 7.01 µM
Kd (BSA [5]; BSA, 308 K): 15.5 µM
water solubility [6]: very low
KSV (HSA [1]; 298 K): 4.9578 10^4 M^−1
KSV (HSA [1]; 303 K): 6.5117 10^4 M^−1
KSV (HSA [1]; 308 K): 7.2510 10^4 M^−1
kq (HSA [1]; HSA, 298 K): 4.9578 10^12 M^−1 s^−1
n (number of binding sites) (HSA [1]; HSA, 298 K): 1.2027
kq (HSA [1]; HSA, 303 K): 6.5117 10^12 M^−1 s^−1
n (number of binding sites) (HSA [1]; HSA, 303 K): 1.1449
kq (HSA [1]; HSA, 308 K): 7.2510 10^12 M^−1 s^−1
n (number of binding sites) (HSA [1]; HSA, 308 K): 1.0786
number of binding site (HSA [1]; HSA, temperature not stated, listed as (20S)-Rh2): 1
Kd (HSA [1]; HSA, 298 K): 1.83 µM
Kd (HSA [1]; HSA, 303 K): 2.86 µM
Kd (HSA [1]; HSA, 308 K): 5.39 µM
